Data from US9296690B2, “Method for inhibiting differentiation of osteoclast and pharmaceutical composition comprising thereof” (Metacine, Inc., priority 2012, dated 2016).
Each block holds one compound with its values, some of them ahead of it.

Experiments:
RAW 264.7 cell = assay: Inhibition effect on osteoclast differentiation (RANKL-stimulated RAW 264.7 cells, TRAP stain, osteoclast count); format: cell-based, mouse; conditions: RAW 264.7 + RANKL; for osteoclast differentiation degree (number of cells differentiated to osteoclasts): 7 days, osteoclasts with more than 4 nuclei, two values per concentration, control 51.5
Method: RAW 264.7 cell, a mouse macrophage/monocyte cell line which can be differentiated in various forms depends on its surrounding environments and stimuli, is differentiated to multinucleated osteoclast by the stimulus of RANKL (100 ng/ml). Inhibition effect of each compound on osteoclast differentiation was analyzed by comparing the degree of osteoclast differentiation when RAW 264.7 cell was treated with RANKL and the subject each compound simultaneously.
Inhibition activities of osteoclast differentiation in respect of compounds 4a, 4b, 4c, 4d, 4e, 4f, 4 g, 4 h, 4i, 4j, 4k, 4l, 4m, 4n, 4o, 7a, 7b, 7c, and 7d were tested. Macrophage/monocyte RAW 264.7 cell was used as a cell and 1.5×10^3 cells were seeded in a 96 well plate. The synthesized compound and zoledronic acid as a control material were dissolved in 10% DMSO aqueous solution and treated to cells according to each concentration […].
After pre-treating each compound for 6 hours and then, treating RANKL, the incubation was carried out for 7 days in a 5% CO2 incubator. To observe osteoclasts well, they were stained by TRAP (tartrate resistance acid phosphatase) stain method. The number of cells differentiated to osteoclasts was counted and then, a comparative analysis was conducted for the degree of each compound's osteoclast differentiation.
Only the osteoclasts containing nucleus number more than 4 were only counted as effective analysis targets in both control and experiment groups (See FIGS. 1 and 2).

human integrin αyβ3 = target: T1, human integrin αyβ3 (Homo sapiens, UniProt P05106+P06756); assay: Inhibition activity of osteopontin-integrin binding (protein chip); conditions: n=6
T1 construct: purchased Milipore
T1 sequence (P06756 31-889 limits assumed): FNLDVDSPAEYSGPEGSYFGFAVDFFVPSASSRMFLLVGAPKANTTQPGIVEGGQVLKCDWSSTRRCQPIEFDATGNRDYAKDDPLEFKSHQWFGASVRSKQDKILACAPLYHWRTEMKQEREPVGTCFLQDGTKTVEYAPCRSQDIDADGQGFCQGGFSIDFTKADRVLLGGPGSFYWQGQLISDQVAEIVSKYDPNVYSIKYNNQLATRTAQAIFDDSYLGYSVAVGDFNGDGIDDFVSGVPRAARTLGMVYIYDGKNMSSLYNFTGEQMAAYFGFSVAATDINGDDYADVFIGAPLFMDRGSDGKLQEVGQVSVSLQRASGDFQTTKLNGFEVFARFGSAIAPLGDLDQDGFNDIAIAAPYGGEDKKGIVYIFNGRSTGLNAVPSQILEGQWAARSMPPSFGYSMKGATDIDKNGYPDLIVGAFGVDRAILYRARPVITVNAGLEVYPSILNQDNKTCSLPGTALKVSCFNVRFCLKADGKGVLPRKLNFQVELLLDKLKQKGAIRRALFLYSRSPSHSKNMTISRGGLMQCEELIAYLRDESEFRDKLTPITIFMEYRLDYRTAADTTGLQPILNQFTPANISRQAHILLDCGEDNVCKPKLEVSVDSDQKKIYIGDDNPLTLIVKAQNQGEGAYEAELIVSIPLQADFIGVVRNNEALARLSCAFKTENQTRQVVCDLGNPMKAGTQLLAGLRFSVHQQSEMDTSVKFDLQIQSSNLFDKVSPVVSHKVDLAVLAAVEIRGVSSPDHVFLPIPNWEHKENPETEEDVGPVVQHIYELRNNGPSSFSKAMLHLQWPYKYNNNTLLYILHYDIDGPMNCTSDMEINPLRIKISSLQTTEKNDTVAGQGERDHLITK
T1 sequence (P06756 891-1048 partner limits assumed): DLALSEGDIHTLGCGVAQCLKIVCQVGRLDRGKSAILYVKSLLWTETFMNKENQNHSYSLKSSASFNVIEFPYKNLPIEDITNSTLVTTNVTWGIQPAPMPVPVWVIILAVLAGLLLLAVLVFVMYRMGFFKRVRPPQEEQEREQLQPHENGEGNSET
T1 sequence (P05106 27-788): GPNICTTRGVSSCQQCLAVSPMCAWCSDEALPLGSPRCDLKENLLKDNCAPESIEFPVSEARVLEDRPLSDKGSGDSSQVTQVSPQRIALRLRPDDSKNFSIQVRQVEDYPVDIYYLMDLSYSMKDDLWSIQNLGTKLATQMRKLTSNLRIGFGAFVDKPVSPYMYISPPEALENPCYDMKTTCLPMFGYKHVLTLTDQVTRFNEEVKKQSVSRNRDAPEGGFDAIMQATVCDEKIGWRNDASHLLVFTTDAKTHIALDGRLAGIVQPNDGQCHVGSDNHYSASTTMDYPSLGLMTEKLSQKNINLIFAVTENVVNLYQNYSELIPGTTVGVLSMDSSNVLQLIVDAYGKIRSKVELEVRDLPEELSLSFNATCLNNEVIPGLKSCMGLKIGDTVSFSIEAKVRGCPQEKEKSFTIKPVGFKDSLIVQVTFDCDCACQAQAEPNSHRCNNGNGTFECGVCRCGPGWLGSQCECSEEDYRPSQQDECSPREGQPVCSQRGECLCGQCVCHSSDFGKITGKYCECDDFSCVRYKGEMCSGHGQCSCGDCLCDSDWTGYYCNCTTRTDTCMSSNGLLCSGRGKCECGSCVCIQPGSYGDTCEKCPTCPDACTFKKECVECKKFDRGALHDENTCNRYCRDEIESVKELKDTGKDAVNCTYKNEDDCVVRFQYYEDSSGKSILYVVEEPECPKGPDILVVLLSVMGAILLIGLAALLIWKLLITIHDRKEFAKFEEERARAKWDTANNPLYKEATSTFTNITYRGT
Method: After the human integrin αyβ3 (100 μg/ml, Milipore) was fixed to the protein chip (PeproTech), the human recombinant OPN (40 μg/ml, PeproTech) molecule coupled with Cy5-fluorescent was reacted for 1 hour. Echistatin molecule (40 μg/ml, Sigma-Aldrich) was used as a positive control. The samples were simultaneously treated to conduct a comparative analysis for the binding inhibitory effect thereof. Finally, the strength of luminescence is scanned by using image analysis scanner and analyzed to the GraphPad Prism 4 software. […] The binding inhibitory activity of compound 4e of the invention was about 3 times higher than that of ZA (n=6)(FIG. 5).

[1] = target: T2, human recombinant sRNAK receptor (Homo sapiens, UniProt Q9Y6Q6); assay: Inhibition activity of RANK receptor binding (protein chip, sRANK ligand); conditions: n=6
T2 construct: human recombinant sRNAK receptor molecule; purchased PeproTech
T2 sequence (Q9Y6Q6 30-212 limits assumed): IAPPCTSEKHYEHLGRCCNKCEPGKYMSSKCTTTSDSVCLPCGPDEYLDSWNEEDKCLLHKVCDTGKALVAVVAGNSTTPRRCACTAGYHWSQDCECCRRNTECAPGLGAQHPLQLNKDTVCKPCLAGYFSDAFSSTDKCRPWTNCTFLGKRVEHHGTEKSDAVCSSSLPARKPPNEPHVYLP
Method: After the human recombinant sRNAK receptor molecule (100 μg/ml, PeproTech) was fixed to the protein chip (PeproTech), human recombinant sRANK ligand (10 μg/ml, PeproTech) was treated and incubated for 1 hour. OPG molecule was used as a positive control, and the compound and OPG are simultaneously treated. A comparative analysis was conducted to compare the binding inhibition effect of the compound using OPG as a control. Mouse anti-human sRANK ligand monoclonal antibody coupled with Cy5-fluorescent (1.0 μg/ml, PeproTech) was treated for 30 minutes, and scanning the strength of luminescence by using image analysis scanner and analyzed to the GraphPad Prism 4 software. Out of the above stated compounds, compound 4e and ZA were comparatively analyzed. […] That of the compound 4e was 46.70%.

NF-kappa B = assay: Inhibition of NF-kappa B in RAW264.7 cells; format: cell-based, mouse; conditions: 10 μM, 12 hours, then ALLN and RANKL 30 minutes
Source text: It is confirmed that the compound of 4e is suppressed the mechanism of NF-kappa B 2 times more than ZA (FIG. 3)

melting point: 107 to 108 °C
Compound: O=C1C(c2ccccc2)=C(c2ccccc2)C(=O)N1Cc1cccc(F)c1 [Compound 4o, 1-(3-fluorobenzyl)-3,4-diphenyl-1H-pyrrole-2,5-dione]

melting point: 111 to 112 °C
Compound: O=C1C(c2ccccc2)=C(c2ccccc2)C(=O)N1CCc1ccccc1F [Compound 4r, 1-(2-fluorophenethyl)-3,4-diphenyl-1H-pyrrole-2,5-dione]

melting point: 157 to 158 °C
Compound: O=C1C(c2ccccc2)=C(c2ccccc2)C(=O)N1c1cccc(F)c1 [Compound 4k, 1-(3-fluorophenyl)-3,4-diphenyl-1H-pyrrole-2,5-dione]
osteoclast differentiation degree (number of cells differentiated to osteoclasts) (RAW 264.7 cell; 0.5 μM): 40 | osteoclast differentiation degree (number of cells differentiated to osteoclasts) (RAW 264.7 cell; 1 μM): 25 | osteoclast differentiation degree (number of cells differentiated to osteoclasts) (RAW 264.7 cell; 5 μM): 40 | osteoclast differentiation degree (number of cells differentiated to osteoclasts) (RAW 264.7 cell; 10 μM): 28

melting point: 249 to 250 °C
Compound: O=C(O)c1cc(N2C(=O)C(c3ccccc3)=C(c3ccccc3)C2=O)ccc1O [Compound 4i, 5-(2,5-dioxo-3,4-diphenyl-2,5-dihydro-1H-pyrrol-1-yl)-2-hydroxybenzoic acid]

melting point: 153 to 154 °C
Compound: O=C1C(c2ccccc2)=C(c2ccccc2)C(=O)N1CCc1ccc(F)cc1 [Compound 4t, 1-(4-fluorophenethyl)-3,4-diphenyl-1H-pyrrole-2,5-dione]

melting point: 159 to 160 °C
Compound: O=C1C(c2ccccc2)=C(c2ccccc2)C(=O)N1C1CCCCC1 [Compound 4g, 1-cyclohexyl-3,4-diphenyl-1H-pyrrole-2,5-dione]

Compound: Echistatin [reference compound]
binding inhibitory rate with integrin molecule (OPN-integrin) (human integrin αyβ3): 51.75%

melting point: 129 to 130 °C
Compound: O=C1C(c2ccccc2)=C(c2ccccc2)C(=O)N1CCc1cccc(F)c1 [Compound 4s, 1-(3-fluorophenethyl)-3,4-diphenyl-1H-pyrrole-2,5-dione]

binding inhibitory activity upon to RANK receptor [1]: 27.55% | binding inhibitory rate with integrin molecule (OPN-integrin) (human integrin αyβ3): 8.65%
Compound: O=P(O)(O)C(O)(Cn1ccnc1)P(=O)(O)O [ZA, zoledronic acid, reference compound]

melting point: 213 to 214 °C
Compound: O=C1C(c2ccccc2)=C(c2ccccc2)C(=O)N1c1ccccc1Cl [Compound 4c, 1-(2-chlorophenyl)-3,4-dipheyl-1H-pyrrole-2,5-dione]

melting point: 233 to 234 °C
Compound: CC(C)c1cccc(C(C)C)c1N1C(=O)C(c2ccccc2)=C(c2ccccc2)C1=O [Compound 4a, 1-(2,6-diisopropylphenyl)-3,4-diphenyl-1H-pyrrole-2,5-dione]

melting point: 113 to 114 °C
Compound: O=C1C(c2ccccc2)=C(c2ccccc2)C(=O)N1Cc1ccccc1F [Compound 4n, 1-(2-fluorobenzyl)-3,4-diphenyl-1H-pyrrole-2,5-dione]

melting point: 152 to 153 °C
Compound: O=C1C(c2ccccc2)=C(c2ccccc2)C(=O)N1c1ccccc1C(F)(F)F [Compound 4f, 3,4-diphenyl-1-(2-(trifluoromethyl)phenyl)-1H-pyrrole-2,5-dione]

melting point: 144 to 145 °C
Compound: O=C1C(c2ccccc2)=C(c2ccccc2)C(=O)N1c1cccc(Cl)c1 [Compound 4d, 1-(3-chlorophenyl)-3,4-diphenyl-1H-pyrrole-2,5-dione]

binding inhibitory activity upon to RANK receptor [1]: 46.70% | binding inhibitory activity upon to RANK receptor relative to ZA [1]: about 1.7 times | OPN-integrin binding inhibitory activity relative to ZA (human integrin αyβ3): about 3 times | binding inhibitory rate with integrin molecule (OPN-integrin) (human integrin αyβ3): 26.45%
Compound: O=C1C(c2ccccc2)=C(c2ccccc2)C(=O)N1c1ccc(Cl)cc1 [Compound 4e, 1-(4-chlorophenyl)-3,4-diphenyl-1H-pyrrole-2,5-dione]
inhibition effect on osteoclast differentiation (in words) (RAW 264.7 cell): more superior inhibition effect on osteoclast differentiation than the control group of zoledronic acid | suppression of the mechanism of NF-kappa B relative to ZA (NF-kappa B): 2 times

Compound: OPG: OPG (osteoprotegrin) molecule, RANKL antagonist, used as a positive control [reference compound]
binding inhibitory activity upon to RANK receptor [1]: 83.65%
